Experimental data: patent US8759519B2, “Mono-hydrochloric salts of an inhibitor of histone deacetylase” (Janssen Pharmaceutica NV, priority 2007, dated 2014)
Counter-ions that a name gives are not always drawn.

Assays:
Format in all cases: physicochemical
[1] = Adsorption/desorption of water (dynamic vapor sorption)
Protocol: The ADS/DES data were obtained using a SMS dynamic vapor sorption model DVS-1 and the weight change was recorded with tespect to the atmospheric humidity at 25° C. The weight of the samples was about 17 mg of Form I and 24 mg of Form II. The samples were dried for 60 min under dry nitrogen. The equilibrium was lower or equal to 0.01%/min. for minimal 15 min and maximal 60 min. The data interval was 0.05% or 2.0 min.
Relative Humidity (%) measurement points were:
The adsorption and desorption of water at 25° C. at different conditions of relative humidity was investigated on 17 mg Form I.
The weight change as a function of relative humidity was registered.
The adsorption and desorption of water at 25° C. at different conditions of relative humidity was investigated on about 24 mg Form II

[2] = Crystallographic stability after storage in open conditions (TGA, DSC, XRPD, IR); design: key to XRD / IR: ~Ref: identical with reference; Cryst.: crystalline; settings: for IR / XRD: Table G
Protocol: The stability of the crystal structure of Form I was studied after storage of the compound in open conditions for a period of six weeks at room temperature (RT) under <5%, 56% and 75% relative humidity (RH), 50° C. and 40° C./75% RH.
The samples are analyzed with thermogravimetry (TGA), differential scanning calorimetry (DSC), X-ray powder diffraction (XRPD) and infrared spectroscopy (IR).
The stability of the crystal structure of Form II was studied after storage of the compound in open conditions for a period of six weeks at room temperature (RT) under <5%, 56% and 75% relative humidity (RH), 50° C. and 40° C./75% RH.
The samples were analyzed with thermogravimetry (TGA), differential scanning calorimetry (DSC), X-ray powder diffraction (XRPD) and infrared spectroscopy (IR).

[3] = Chemical stability after storage in open conditions (HPLC, visual inspection); settings: for HPLC Sum of impurities / Appearance: hydrochloride
Protocol: Form I was stored in different open conditions for periods of 1, 4 and 8 weeks.
These conditions are 40° C./75% RH, 50° C., RT/<5% RH, RT/56% RH, RT/75% RH and 0.3 da ICH light.
The compounds were analyzed after storage by HPLC and by visual inspection.
Form II was stored in different open conditions for periods of 1, 4 and 8 weeks. These conditions were 40° C./75% RH, 50° C., RT/<5% RH, RT/56% RH, RT/75% RH and 0.3 da ICH light.

[4] = 0 days (reference), hydrochloride
[5] = extra endothermic signal, six weeks open, 40° C./75% RH
[6] = extra endothermic signal, six weeks open, 50° C.
[7] = extra endothermic signal, six weeks open, RT/56% RH
[8] = extra endothermic signal, six weeks open, RT/75% RH
[9] = extra endothermic signal, six weeks open, RT/<5% RH
[10] = six weeks open, 40° C./75% RH, hydrochloride
[11] = six weeks open, 50° C., hydrochloride
[12] = six weeks open, RT/<5% RH, hydrochloride

**Q.** For Cn1cc(CNCC2CCN(c3ncc(C(=O)NO)cn3)CC2)c2ccccc21 [Form II, N-hydroxy-2-[4-[[[(1-methyl-1H-indol-3-yl)methyl]amino]methyl]-1-piperidinyl]-5-pyrimidinecarboxamide hydrochloride], which “drying during the desorption cycle” value ([1]; 25° C.) is on record?
**A.** Its value is “dries completely”.

**Q.** And the hygroscopic behavior ([1]; 25° C., adsorption/desorption test, hydrochloride)?
**A.** The hygroscopic behavior was “hygroscopic”.

**Q.** What about the “water adsorbed at high relative humidity” value ([1]; 25° C., high relative humidity, hydrochloride) of the same molecule?
**A.** Its value is “up to 9.6%”.

**Q.** And the “crystallinity during the adsorption/desorption test” value ([1]; 25° C., hydrochloride)?
**A.** The value was “remains crystalline”.

**Q.** What about the “weight loss during the initial drying step” value ([1]; dried under dry nitrogen) of the same molecule?
**A.** Its value is 1.67%.

**Q.** What about the “DSC Max (° C.)” value ([2]; 0 days (reference)) of the same molecule?
**A.** Its value is “±198 °C”.

**Q.** What about the TGA <170° C. ([2]; 0 days (reference)) of the same molecule?
**A.** Its TGA <170° C. is 0.4%.

**Q.** What about the “App (appearance)” value [2, 4] of the same molecule?
**A.** Its value is “white”.

**Q.** And the TGA <100° C. [2, 4]?
**A.** The TGA <100° C. was 3.3%.

**Q.** And the IR ([2]; six weeks open, 40° C./75% RH)?
**A.** Its IR is “≠Ref”.

**Q.** And the XRD ([2]; six weeks open, 40° C./75% RH)?
**A.** The XRD was “≠Ref”.

**Q.** What about the IR ([2]; six weeks open, 50° C.) of the same molecule?
**A.** Its IR is “~Ref”.

**Q.** And the XRD ([2]; six weeks open, 50° C.)?
**A.** Its XRD is “~Ref”.

**Q.** And the IR ([2]; six weeks open, RT/56% RH)?
**A.** Its IR is “≠Ref”.

**Q.** What about the XRD ([2]; six weeks open, RT/56% RH) of the same molecule?
**A.** Its XRD is “≠Ref”.

**Q.** What about the IR ([2]; six weeks open, RT/75% RH) of the same molecule?
**A.** The IR was “≠Ref”.

**Q.** What about the XRD ([2]; six weeks open, RT/75% RH) of the same molecule?
**A.** The XRD was “≠Ref”.

**Q.** What about the IR ([2]; six weeks open, RT/<5% RH) of the same molecule?
**A.** Its IR is “~Ref”.

**Q.** What about the XRD ([2]; six weeks open, RT/<5% RH) of the same molecule?
**A.** The XRD was “~Ref”.

**Q.** And the “DSC Extra (° C.)” value ([2]; extra endothermic signal (solvent evaporation), 0 days (reference))?
**A.** The value was 71.5 °C.

**Q.** And the “DSC Extra, heat of the signal” value ([2]; extra endothermic signal, 0 days (reference))?
**A.** The value was “(78 J/g)”.

**Q.** What about the “DSC Extra (° C.)” value [2, 5] of the same molecule?
**A.** The value was 83.9 °C.

**Q.** What about the “DSC Extra, heat of the signal” value [2, 5] of the same molecule?
**A.** Its value is “(151 J/g)”.

**Q.** What about the “DSC Extra (° C.)” value [2, 6] of the same molecule?
**A.** The value was 74.6 °C.

**Q.** What about the “DSC Extra, heat of the signal” value [2, 6] of the same molecule?
**A.** Its value is “(66 J/g)”.

**Q.** And the “DSC Extra (° C.)” value [2, 7]?
**A.** The value was 87.1 °C.

**Q.** And the “DSC Extra, heat of the signal” value [2, 7]?
**A.** Its value is “(144 J/g)”.

**Q.** What about the “DSC Extra (° C.)” value [2, 8] of the same molecule?
**A.** Its value is 85.2 °C.

**Q.** What about the “DSC Extra, heat of the signal” value [2, 8] of the same molecule?
**A.** Its value is “(153 J/g)”.

**Q.** And the “DSC Extra (° C.)” value [2, 9]?
**A.** Its value is 75.1 °C.

**Q.** And the “DSC Extra, heat of the signal” value [2, 9]?
**A.** The value was “(68 J/g)”.

**Q.** And the “crystallographic stability (conclusion)” value ([2]; six weeks open storage under the different conditions, hydrochloride)?
**A.** The value was “crystallographically not stable”.

**Q.** What about the “DSC Max (° C.)” value ([2]; six weeks open, 40° C./75% RH) of the same molecule?
**A.** The value was “±198 °C”.

**Q.** And the TGA <170° C. ([2]; six weeks open, 40° C./75% RH)?
**A.** The TGA <170° C. was 0.2%.

**Q.** And the “App (appearance)” value [2, 10]?
**A.** Its value is “pink”.

**Q.** And the TGA <100° C. [2, 10]?
**A.** The TGA <100° C. was 6%.

**Q.** What about the “DSC Max (° C.)” value ([2]; six weeks open, 50° C.) of the same molecule?
**A.** The value was “±198 °C”.

**Q.** And the TGA <170° C. ([2]; six weeks open, 50° C.)?
**A.** Its TGA <170° C. is 0.2%.

**Q.** What about the “App (appearance)” value [2, 11] of the same molecule?
**A.** The value was “white”.

**Q.** What about the TGA <100° C. [2, 11] of the same molecule?
**A.** Its TGA <100° C. is 2.1%.

**Q.** What about the “DSC Max (° C.)” value ([2]; six weeks open, RT/56% RH) of the same molecule?
**A.** The value was “±198 °C”.

**Q.** What about the TGA <170° C. ([2]; six weeks open, RT/56% RH) of the same molecule?
**A.** The TGA <170° C. was 0.3%.

**Q.** What about the TGA <100° C. ([2]; six weeks open, RT/56% RH, hydrochloride) of the same molecule?
**A.** The TGA <100° C. was 5.2%.

**Q.** What about the “DSC Max (° C.)” value ([2]; six weeks open, RT/75% RH) of the same molecule?
**A.** The value was “±198 °C”.

**Q.** And the TGA <170° C. ([2]; six weeks open, RT/75% RH)?
**A.** Its TGA <170° C. is 0.3%.

**Q.** And the TGA <100° C. ([2]; six weeks open, RT/75% RH, hydrochloride)?
**A.** The TGA <100° C. was 4.9%.

**Q.** What about the “DSC Max (° C.)” value ([2]; six weeks open, RT/<5% RH) of the same molecule?
**A.** The value was “±198 °C”.

**Q.** And the TGA <170° C. ([2]; six weeks open, RT/<5% RH)?
**A.** Its TGA <170° C. is 0.4%.

**Q.** What about the “App (appearance)” value [2, 12] of the same molecule?
**A.** The value was “white”.

**Q.** And the TGA <100° C. [2, 12]?
**A.** The TGA <100° C. was 1.9%.

**Q.** What about the HPLC Sum of impurities ([3]; 0.3 da ICH light (1 week)) of the same molecule?
**A.** The HPLC Sum of impurities was 7.42%.

**Q.** And the HPLC Sum of impurities ([3]; 40° C./75% RH, 1 week)?
**A.** Its HPLC Sum of impurities is 4.96%.

**Q.** And the Appearance ([3]; 40° C./75% RH, 4 weeks)?
**A.** The Appearance was “pink”.

**Q.** And the HPLC Sum of impurities ([3]; 40° C./75% RH, 4 weeks)?
**A.** The HPLC Sum of impurities was 4.99%.

**Q.** And the Appearance ([3]; 40° C./75% RH, 8 weeks)?
**A.** The Appearance was “pink”.

**Q.** And the HPLC Sum of impurities ([3]; 40° C./75% RH, 8 weeks)?
**A.** Its HPLC Sum of impurities is 4.9%.

**Q.** What about the Appearance ([3]; 50° C., 1 week) of the same molecule?
**A.** The Appearance was “white”.

**Q.** And the HPLC Sum of impurities ([3]; 50° C., 1 week)?
**A.** The HPLC Sum of impurities was 4.96%.

**Q.** And the Appearance ([3]; 50° C., 4 weeks)?
**A.** Its Appearance is “white”.

**Q.** And the HPLC Sum of impurities ([3]; 50° C., 4 weeks)?
**A.** Its HPLC Sum of impurities is 5%.

**Q.** And the HPLC Sum of impurities ([3]; 50° C., 8 weeks)?
**A.** Its HPLC Sum of impurities is 4.9%.

**Q.** And the HPLC Sum of impurities ([3]; RT/56% RH, 4 weeks)?
**A.** Its HPLC Sum of impurities is 5.05%.

**Q.** And the HPLC Sum of impurities ([3]; RT/56% RH, 8 weeks)?
**A.** Its HPLC Sum of impurities is 4.94%.

**Q.** And the HPLC Sum of impurities ([3]; RT/75% RH, 4 weeks)?
**A.** Its HPLC Sum of impurities is 5.03%.

**Q.** What about the HPLC Sum of impurities ([3]; RT/75% RH, 8 weeks) of the same molecule?
**A.** Its HPLC Sum of impurities is 4.97%.

**Q.** What about the Appearance ([3]; RT/<5% RH, 4 weeks) of the same molecule?
**A.** The Appearance was “white”.

**Q.** And the HPLC Sum of impurities ([3]; RT/<5% RH, 4 weeks)?
**A.** The HPLC Sum of impurities was 5.1%.

**Q.** What about the Appearance ([3]; RT/<5% RH, 8 weeks) of the same molecule?
**A.** Its Appearance is “white”.

**Q.** What about the HPLC Sum of impurities ([3]; RT/<5% RH, 8 weeks) of the same molecule?
**A.** The HPLC Sum of impurities was 4.98%.

**Q.** And the Appearance ([3]; Reference (1 week))?
**A.** Its Appearance is “white”.

**Q.** And the HPLC Sum of impurities ([3]; Reference (1 week))?
**A.** The HPLC Sum of impurities was 5.04%.

**Q.** What about the discoloration ([3]; after storage in 0.3 da ICH light) of the same molecule?
**A.** The discoloration was “white to or orange-brown”.

**Q.** What about the discoloration ([3]; after storage in humid conditions RT/56% RH, RT/75% RH and 40° C./75% RH and elevated temperature 50° C.) of the same molecule?
**A.** Its discoloration is “white to pink”.

**Q.** And the “sensitivity towards light (sum of impurities)” value ([3]; storage in 0.3 da ICH light conditions)?
**A.** Its value is “showed a sensitivity towards light”.
